± gives the standard deviation of the averaged measurements.
What was measured:
Conditions in all cases: 72 h
HepG2 [1] = assay: cell viability relative to DMSO; higher = less toxic
U2OS [2] = assay: as above
Vero E6 [3] = assay: as above
Caco-2 [4] = assay: as above
Calu-3 [5] = assay: as above
HepG2 [6] = assay: drug sensitivity score (DSS) for viability; higher = more toxic; extreme values may be limits of the assay
U2OS [7] = assay: as above
Vero E6 [8] = assay: as above
Caco-2 [9] = assay: as above
Calu-3 [10] = assay: as above
HepG2 [11] = assay: relative viability EC50 (midpoint between 100% and the lowest measured viability); higher = less toxic
U2OS [12] = assay: as above
Vero E6 [13] = assay: as above
Caco-2 [14] = assay: as above
Calu-3 [15] = assay: as above

Structure (SMILES) | cell viability (HepG2 [1]; 1 nM) | cell viability (HepG2 [1]; 10 nM) | cell viability (HepG2 [1]; 100 nM) | cell viability (HepG2 [1]; 1000 nM) | cell viability (HepG2 [1]; 10000 nM) | cell viability (U2OS [2]; 1 nM) | cell viability (U2OS [2]; 10 nM) | cell viability (U2OS [2]; 100 nM) | cell viability (U2OS [2]; 1000 nM) | cell viability (U2OS [2]; 10000 nM) | cell viability (Vero E6 [3]; 1 nM) | cell viability (Vero E6 [3]; 10 nM) | cell viability (Vero E6 [3]; 100 nM) | cell viability (Vero E6 [3]; 1000 nM) | cell viability (Vero E6 [3]; 10000 nM) | cell viability (Caco-2 [4]; 1 nM) | cell viability (Caco-2 [4]; 10 nM) | cell viability (Caco-2 [4]; 100 nM) | cell viability (Caco-2 [4]; 1000 nM) | cell viability (Caco-2 [4]; 10000 nM) | cell viability (Calu-3 [5]; 1 nM) | cell viability (Calu-3 [5]; 10 nM) | cell viability (Calu-3 [5]; 100 nM) | cell viability (Calu-3 [5]; 1000 nM) | cell viability (Calu-3 [5]; 10000 nM) | drug sensitivity score (HepG2 [6]) | drug sensitivity score (U2OS [7]) | drug sensitivity score (Vero E6 [8]) | drug sensitivity score (Caco-2 [9]) | drug sensitivity score (Calu-3 [10]) | relative viability EC50 (HepG2 [11]) | relative viability EC50 (U2OS [12]) | relative viability EC50 (Vero E6 [13]) | relative viability EC50 (Caco-2 [14]) | relative viability EC50 (Calu-3 [15])
C[C@@H](C1=C(CCN(C)C)Cc2ccccc21)c1ccccn1 (racemic) [dimetindene] | 104 ± 4.7% | 98 ± 4.8% | 106 ± 5.9% | 89.7 ± 3.2% | 103 ± 2.5% | 99.5 ± 0.57% | 104 ± 1.8% | 99.3 ± 7.8% | 100 ± 1.4% | 94.8 ± 2.6% | 97.2 ± 8% | 98.2 ± 1.2% | 100.2 ± 0.78% | 100% | 96.5 ± 8% | 93.1 ± 6.5% | 98.2 ± 4.7% | 96.3 ± 4.6% | 102 ± 10% | 104.8 ± 0.92% | 98.2 ± 2% | 113 ± 4% | 103.2 ± 0.21% | 105 ± 3.2% | 96 ± 2% | 0 | 0 | 0 | 0 | 0 | > 10 µM | > 10 µM | > 10 µM | > 10 µM | > 10 µM
CC(C)NC[C@@H](O)COc1ccccc1-n1cccc1 (racemic) [isamoltane] | 97.1% | 100% | 108% | 105% | 104% | 96.8% | 99% | 97.4% | 107% | 102% | 105% | 97.7% | 96.1% | 96.3% | 102% | 96.3% | 97.7% | 93.1% | 103% | 107% | 98.2% | 99.2% | 94.9% | 97.1% | 98.3% | 0 | 0 | 0 | 0 | 0 | > 10 µM | > 10 µM | > 10 µM | > 10 µM | > 10 µM
CC(C)(O)C(=O)Nc1ccc([N+](=O)[O-])c(C(F)(F)F)c1 [2-hydroxyflutamide] | 97.6% | 99.3% | 92.6% | 98% | 98.1% | 99% | 105% | 103% | 97.1% | 94.6% | 100% | 102% | 102% | 93.9% | 97% | 97.3% | 90.4% | 90% | 96.5% | 87.9% | 100% | 97.2% | 97.8% | 101% | 107% | 0 | 0 | 0 | 0 | 0 | > 10 µM | > 10 µM | > 10 µM | > 10 µM | > 10 µM
N=C1N[C@H]2[C@H](CS[C@H]2CCCCC(=O)O)N1 [2-iminobiotin] | 100% | 102% | 106% | 97.6% | 106% | 102% | 102% | 99.5% | 104% | 98.3% | 110% | 106% | 105% | 97.5% | 102% | 93.6% | 105% | 96.8% | 98.8% | 98% | 105% | 98.8% | 101% | 118% | 106% | 0 | 0 | 0 | 0 | 0 | > 10 µM | > 10 µM | > 10 µM | > 10 µM | > 10 µM
N[C@H](C(=O)O)c1ccc(O)c(C(=O)O)c1 [3-carboxy-4-hydroxyphenylglycine-(S)] | 102.2 ± 0.28% | 97.5 ± 5.9% | 98.7 ± 0.28% | 100 ± 2.3% | 100 ± 1.3% | 101 ± 0.71% | 101 ± 1.9% | 103 ± 2.5% | 94.8 ± 4.5% | 102 ± 0.49% | 104 ± 7.1% | 103.7 ± 0.35% | 99 ± 2.3% | 106 ± 3.2% | 101 ± 2.1% | 95.6 ± 1.8% | 101 ± 1.3% | 95.2 ± 2.6% | 93.4 ± 0.57% | 101 ± 4.5% | 96.5 ± 5.7% | 89 ± 0.99% | 96 ± 4.8% | 94.2 ± 3% | 101 ± 3% | 0 | 0 | 0 | 0 | 0 | > 10 µM | > 10 µM | > 10 µM | > 10 µM | > 10 µM
Cn1cnc(N)c2ncnc1-2 [3-methyladenine] | 103% | 102% | 89.6% | 101% | 90.5% | 103% | 97.1% | 98.3% | 97.9% | 99.8% | 95.1% | 103% | 102% | 96.6% | 96.5% | 99.3% | 94.8% | 108% | 102% | 100% | 104% | 101% | 95.2% | 106% | 106% | 0 | 0 | 0 | 0 | 0 | > 10 µM | > 10 µM | > 10 µM | > 10 µM | > 10 µM
C1CCC2(CC1)CCNCC2 [4,4-pentamethylenepiperidine] | 104% | 90.7% | 96% | 102% | 96.7% | 97.2% | 95.3% | 95.2% | 94.9% | 91.7% | 102% | 101% | 100% | 104% | 98.7% | 99.9% | 93% | 97.4% | 91.2% | 102% | 99.2% | 96.3% | 109% | 95.1% | 101% | 0 | 0 | 0 | 0 | 0 | > 10 µM | > 10 µM | > 10 µM | > 10 µM | > 10 µM
Cc1cc(=O)oc2c(C=O)c(O)ccc12 [4-mu-8C] | 106% | 106% | 111% | 87.4% | 89.3% | 107% | 101% | 97.8% | 100% | 99% | 97.6% | 104% | 102% | 102% | 100% | 98% | 95.5% | 101% | 104% | 87.1% | 102% | 92.7% | 118% | 110% | 97.9% | 0.6 | 0 | 0 | 0 | 0 | > 10 µM | > 10 µM | > 10 µM | > 10 µM | > 10 µM
CC(=O)O[C@@]12CO[C@@H]1C[C@H](O)[C@@]1(C)C(=O)[C@H](O)C3=C(C)[C@@H](O)C[C@@](O)([C@@H](OC(=O)c4ccccc4)[C@H]21)C3(C)C [10-deacetylbaccatin] | 93.9% | 105% | 97.3% | 108% | 108% | 98.4% | 99.3% | 104% | 102% | 107% | 97.6% | 96.1% | 95.6% | 95.1% | 106% | 102% | 110% | 92.6% | 99% | 102% | 105% | 95.6% | 94.9% | 97.4% | 108% | 0 | 0 | 0 | 0 | 0 | > 10 µM | > 10 µM | > 10 µM | > 10 µM | > 10 µM
CC(=N)NCc1cccc(CN)c1 [1400W] | 102% | 100% | 105% | 94.4% | 97% | 103% | 94.6% | 104% | 98% | 104% | 103% | 98.3% | 99.9% | 102% | 97.7% | 112% | 92.6% | 103% | 92.2% | 103% | 102% | 93% | 91.2% | 108% | 109% | 0 | 0 | 0 | 0 | 0 | > 10 µM | > 10 µM | > 10 µM | > 10 µM | > 10 µM
COc1c(Nc2ccc(S(C)(=O)=O)nc2C)ncnc1OC1CCN(C(=O)OC(C)C)CC1 [APD597] | 99.6% | 104% | 94.4% | 94.6% | 86.3% | 99.5% | 99.1% | 99.6% | 99.7% | 100% | 106% | 98.2% | 97% | 100% | 95.5% | 96.5% | 96.2% | 103% | 93.4% | 90.2% | 106% | 105% | 106% | 109% | 98.7% | 0.1 | 0 | 0 | 0 | 0 | > 10 µM | > 10 µM | > 10 µM | > 10 µM | > 10 µM
COc1cc(OC)cc(-c2ccc3c(-c4ccc(F)cc4)n[nH]c3n2)c1 [APcK-110] | 99.8% | 90.1% | 101% | 98.1% | 107% | 93.5% | 99.5% | 97.9% | 99.9% | 103% | 99.1% | 89.9% | 97.1% | 93.3% | 108% | 94.5% | 98.3% | 97.6% | 96.3% | 99.9% | 99.5% | 110% | 104% | 103% | 97.3% | 0 | 0 | 0 | 0 | 0 | > 10 µM | > 10 µM | > 10 µM | > 10 µM | > 10 µM

From the supplement of paper PMC13380429
